Measured values as given in BigSolDB 2.1.

O=S(=O)([O-])c1cccc2ccccc12.[Na+]
solubility (mole fraction)
Conditions	278.15 K	283.15 K	288.15 K	293.15 K	298.15 K	303.15 K	308.15 K	313.15 K	318.15 K	323.15 K
in 1,4-dioxane	0.0004	0.000497	0.000602	0.000722	0.000842	0.00101	0.00121	0.00143	0.00169	0.00203
in acetone	9.36e-05	0.000122	0.000156	0.000197	0.00024	0.000288	0.000351	0.000417	0.000501	0.0006
in cyclohexanone	0.000222	0.000299	0.00038	0.000481	0.000603	0.000743	0.0009	0.00108	0.00127	0.00152
in ethanol	0.000297	0.000386	0.000513	0.000668	0.000829	0.00106	0.00132	0.00167	0.00217	0.00277
in ethyl acetate	4.49e-05	5.77e-05	7.34e-05	9.37e-05	0.000119	0.000148	0.000184	0.000227	0.000269	0.000311
in isopropanol	0.000108	0.000145	0.000204	0.000275	0.000351	0.000458	0.000588	0.000727	0.000886	0.00109
